Results from US10526337B2, “Heteroaryl derivative or pharmaceutically acceptable salt thereof, preparation method therefor, and pharmaceutical composition for preventing or treating diseases associated with PI3 kinases, containing same as active ingredient” (KOREA RESEARCH INSTITUTE OF CHEMICAL TECHNOLOGY, priority 2015, dated 2020).

Assays:
Settings in all cases: ATP=10 uM, sample concentration=100 nM
[1] = target: T1, PI3 Kinase (p110α/p85α) (h) (Homo sapiens, UniProt P42336); experiment: Inhibition of phosphatidylinositol 3-kinase alpha (PI3K α), pAkt Western blotting in EGF-stimulated MDA-MB-453 cells; format: cell-based
T1 construct: endogenous in cells; host or cells: MDA-MB-453
Method: The inhibition of phosphatidylinositol 3 kinase alpha (PI3K α) by those compounds prepared in Examples 1˜98 was investigated by the following experiment. The inhibition activity of each compound was measured in the following conditions: ATP=10 uM, and sample concentration=100 nM.
Human breast cancer cells (MDA-MB-453) cultured in DMEM (Dulbecco's Modified Eagle Medium, Hyclon, SH30243.01) supplemented with 10% fetal bovine serum (Hyclon, USA) were distributed in a 12-well plate at the density of 1,000,000 cells/well. The cells were stabilized in a 37° C. CO2 for 24 hours and then treated with each compound for 1 and half hours. The cells were treated with 10 ng/mL of EGF (Epidermal Growth Factor, 10 μg/mL; R&D, 2150-C5) to increase the intracellular activity of PI3K alpha. 5 minutes later, the medium was discarded and the cells were washed with cold PBS (phosphate buffered saline, Gibco, 14190-250). PBS was then eliminated completely by using a pipette. Western blotting was performed as described in step 2 to evaluate the intracellular PI3K alpha activity.
(§1) The stimulated cells were transferred in a 1.5 mL tube, followed by centrifugation at 3000 rpm for 1 minute. 100 μL of RIPA buffer (radioimmunoprecipitation assay buffer, 50 mM Tris-HCl, 5 mM EDTA, 150 mM NaCl, 1% NP-40, 1 mM PMSF, pH 8.0; ELPIS, Korea) was added thereto, which was stored in a 4° C. refrigerator for 12 hours. Centrifugation was performed at 4° C. at 14,000 rpm for 20 minutes. The supernatant was transferred into a new 1.5 mL tube. Protein was quantified by BCA (bicinchoninic acid) method and samples were prepared. The composition of the sample was as follows: sample buffer (ELPIS, EBA-1052) 5×, protein 10 μg, and 1× sample buffer to make the total volume 20 μL. The sample was heated at 100° C. for 5 minutes. The evaporated water vapor was condensed in a refrigerator. The liquid stained on the wall was fallen down by centrifugation for a few seconds. The sample proceeded to 10% SDS (Sodium Dodecyl Sulfate) acrylamide gel for separation. The separated protein was transferred onto PVDF (poly-vinyl difluoride) membrane, followed by reaction with pAkt (phospho protein kinase B) antibody (Ser473 or Thr308; Cell signaling, 9271s or 13038s) for 12 hours at 4° C. The membrane was washed with TBST (Tris-Buffered Saline with Tween 20, 10 mM Tris-HCl, pH 7.5, 150 mM NaCl, 0.1% Tween-20) three times for 5 minutes each, to which the secondary antibody (rabbit antibody, Santacruz, sc-2004) was added, followed by reaction at room temperature for 2 hours. The membrane was washed with TBST three times for 10 minutes each, to which ECL (enhanced chemiluminescence, Thermo, NCI34095KR) was sprayed. Bands were investigated by using LAS-3000.

[2] = target: T2, PI3 Kinase (p110β/p86α) (h) (Homo sapiens, UniProt P42338); experiment: Inhibition of phosphatidylinositol 3-kinase beta (PI3K β), pAkt Western blotting in LPA-stimulated PC3 cells; format: cell-based
T2 construct: endogenous in cells; host or cells: PC3
Method: as §1
The inhibition of phosphatidylinositol 3 kinase beta (PI3K β) by those compounds prepared in Examples 1˜98 was investigated by the following experiment. The inhibition activity of each compound was measured in the following conditions: ATP=10 uM, and sample concentration=100 nM.
Human prostate cancer cells (PC3 cells) cultured in DMEM (Dulbecco's Modified Eagle Medium, Hyclon, SH30243.01) supplemented with 10% fetal bovine serum (Hyclon, USA) were distributed in a 12-well plate at the density of 1,000,000 cells/well. The cells were stabilized in a 37° C. CO2 for 24 hours and then treated with each compound for 1 and half hours. The cells were treated with 10 ng/mL of LPA (lysophosphatidic acid, 10 μg/mL; R&D, 2150-05) to increase the intracellular activity of PI3K beta. 5 minutes later, the medium was discarded and the cells were washed with cold PBS (phosphate buffered saline, Gibco, 14190-250). PBS was then eliminated completely by using a pipette. Western blotting was performed according to the same manner as described in step 2 of Experimental Example 1 to evaluate the intracellular PI3K beta activity.

PI3 Kinase (p120γ) (h) = target: T3, PI3 Kinase (p120γ) (h) (Homo sapiens, UniProt P48736); experiment: Inhibition of phosphatidylinositol 3-kinase gamma (PI3K γ), pAkt Western blotting in C5a-stimulated RAW264.7 macrophages; format: cell-based, mouse
T3 construct: endogenous in cells; host or cells: RAW264.7
How it was run: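 Enzyme: PI3Kγ activity measured at ATP=10 uM with compound at 100 nM. Cellular: RAW264.7 macrophages treated with compound 1.5 h, then stimulated with 10 ng/mL C5a for 5 min; lysates (10 μg protein) probed by Western blot for pAkt (Ser473 or Thr308), ECL detection.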

[3] = target: T4, PI3 Kinase (p110δ/p85α) (h) (Homo sapiens, UniProt O00329); experiment: Inhibition of phosphatidylinositol 3-kinase delta (PI3K δ), pAkt Western blotting in IgM-stimulated Raji cells; format: cell-based
T4 construct: endogenous in cells; host or cells: Raji
How it was run: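 Raji cells were treated with compound for 1.5 h, then stimulated with 0.25 μg/mL IgM for 30 min to activate PI3Kδ. Lysates were Western blotted for pAkt (Ser473 or Thr308) with ECL detection. Conditions stated: ATP=10 uM, sample concentration=100 nM.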

T2 sequence (P42338 whole entry): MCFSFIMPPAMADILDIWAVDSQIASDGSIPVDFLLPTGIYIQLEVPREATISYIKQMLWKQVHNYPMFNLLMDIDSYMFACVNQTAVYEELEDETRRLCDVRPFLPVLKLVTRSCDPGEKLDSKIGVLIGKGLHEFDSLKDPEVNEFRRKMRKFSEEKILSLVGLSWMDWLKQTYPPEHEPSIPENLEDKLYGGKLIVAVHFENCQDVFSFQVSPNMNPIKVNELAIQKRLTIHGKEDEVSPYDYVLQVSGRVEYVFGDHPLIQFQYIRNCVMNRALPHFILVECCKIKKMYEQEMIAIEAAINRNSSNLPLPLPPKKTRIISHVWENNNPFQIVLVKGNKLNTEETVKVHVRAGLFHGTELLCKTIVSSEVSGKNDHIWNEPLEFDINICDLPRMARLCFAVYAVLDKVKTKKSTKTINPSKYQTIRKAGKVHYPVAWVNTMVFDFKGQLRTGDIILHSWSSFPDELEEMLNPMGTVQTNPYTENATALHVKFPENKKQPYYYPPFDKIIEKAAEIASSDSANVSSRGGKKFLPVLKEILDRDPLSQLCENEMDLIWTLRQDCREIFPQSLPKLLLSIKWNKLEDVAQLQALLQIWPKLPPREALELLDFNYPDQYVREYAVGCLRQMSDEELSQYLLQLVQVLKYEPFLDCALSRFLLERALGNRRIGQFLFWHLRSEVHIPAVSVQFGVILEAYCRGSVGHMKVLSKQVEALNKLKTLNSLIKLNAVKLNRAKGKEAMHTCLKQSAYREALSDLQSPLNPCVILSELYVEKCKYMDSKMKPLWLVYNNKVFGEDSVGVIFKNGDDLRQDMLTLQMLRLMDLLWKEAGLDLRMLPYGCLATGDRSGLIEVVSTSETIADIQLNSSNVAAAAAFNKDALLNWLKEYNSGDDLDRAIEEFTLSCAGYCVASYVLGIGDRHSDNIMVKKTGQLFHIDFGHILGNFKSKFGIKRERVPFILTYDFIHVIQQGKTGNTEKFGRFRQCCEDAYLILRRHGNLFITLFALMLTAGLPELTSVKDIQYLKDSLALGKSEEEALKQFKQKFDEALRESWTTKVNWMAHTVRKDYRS
T2 sequence (P27986 whole entry partner): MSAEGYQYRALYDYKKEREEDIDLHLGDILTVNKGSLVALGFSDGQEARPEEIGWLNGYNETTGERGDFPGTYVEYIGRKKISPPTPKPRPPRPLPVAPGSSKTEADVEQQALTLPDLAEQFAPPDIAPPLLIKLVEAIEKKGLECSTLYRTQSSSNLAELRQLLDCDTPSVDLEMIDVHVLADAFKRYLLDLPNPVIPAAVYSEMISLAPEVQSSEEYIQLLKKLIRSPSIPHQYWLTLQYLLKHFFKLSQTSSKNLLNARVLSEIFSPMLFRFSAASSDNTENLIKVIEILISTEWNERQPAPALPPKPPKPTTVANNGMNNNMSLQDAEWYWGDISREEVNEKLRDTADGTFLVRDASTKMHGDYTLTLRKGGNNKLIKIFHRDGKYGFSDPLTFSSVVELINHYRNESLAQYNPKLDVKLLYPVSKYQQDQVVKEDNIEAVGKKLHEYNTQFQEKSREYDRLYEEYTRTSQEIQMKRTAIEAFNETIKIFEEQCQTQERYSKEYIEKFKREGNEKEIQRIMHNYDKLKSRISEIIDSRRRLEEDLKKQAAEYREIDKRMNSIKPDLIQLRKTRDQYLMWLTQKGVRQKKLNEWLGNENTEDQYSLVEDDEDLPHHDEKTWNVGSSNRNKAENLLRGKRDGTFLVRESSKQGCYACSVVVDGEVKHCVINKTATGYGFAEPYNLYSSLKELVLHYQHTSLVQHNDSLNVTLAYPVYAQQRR
T1 sequence (P42336 whole entry): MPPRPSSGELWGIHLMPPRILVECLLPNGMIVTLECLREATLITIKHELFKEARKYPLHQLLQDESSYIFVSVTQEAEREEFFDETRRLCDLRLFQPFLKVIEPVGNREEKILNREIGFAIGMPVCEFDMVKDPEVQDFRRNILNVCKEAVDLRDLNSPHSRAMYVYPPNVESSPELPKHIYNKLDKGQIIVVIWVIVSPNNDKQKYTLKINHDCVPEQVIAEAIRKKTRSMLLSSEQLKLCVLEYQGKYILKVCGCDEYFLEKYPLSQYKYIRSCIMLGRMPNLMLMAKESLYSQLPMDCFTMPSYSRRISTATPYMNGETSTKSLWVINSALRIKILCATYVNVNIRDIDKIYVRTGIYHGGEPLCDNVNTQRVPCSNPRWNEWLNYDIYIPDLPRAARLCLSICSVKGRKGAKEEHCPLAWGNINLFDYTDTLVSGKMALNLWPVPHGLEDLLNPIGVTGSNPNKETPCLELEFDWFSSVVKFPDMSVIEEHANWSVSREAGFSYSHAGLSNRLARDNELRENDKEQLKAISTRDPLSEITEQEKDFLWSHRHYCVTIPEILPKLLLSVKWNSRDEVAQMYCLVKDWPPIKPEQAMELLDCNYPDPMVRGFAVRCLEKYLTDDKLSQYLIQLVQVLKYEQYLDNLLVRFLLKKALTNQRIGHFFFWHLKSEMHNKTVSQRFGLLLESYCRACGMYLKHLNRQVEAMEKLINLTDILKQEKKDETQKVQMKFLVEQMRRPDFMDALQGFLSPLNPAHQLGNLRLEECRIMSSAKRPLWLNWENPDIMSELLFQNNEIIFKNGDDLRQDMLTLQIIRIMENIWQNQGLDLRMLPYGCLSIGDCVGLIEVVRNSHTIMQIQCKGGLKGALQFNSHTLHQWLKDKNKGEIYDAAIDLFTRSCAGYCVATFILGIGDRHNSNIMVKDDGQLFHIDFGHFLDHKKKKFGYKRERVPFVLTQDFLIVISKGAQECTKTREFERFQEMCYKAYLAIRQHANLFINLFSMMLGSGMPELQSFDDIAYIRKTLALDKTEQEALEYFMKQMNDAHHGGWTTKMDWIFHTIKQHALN
T1 sequence (P27986 2-724 partner limits assumed): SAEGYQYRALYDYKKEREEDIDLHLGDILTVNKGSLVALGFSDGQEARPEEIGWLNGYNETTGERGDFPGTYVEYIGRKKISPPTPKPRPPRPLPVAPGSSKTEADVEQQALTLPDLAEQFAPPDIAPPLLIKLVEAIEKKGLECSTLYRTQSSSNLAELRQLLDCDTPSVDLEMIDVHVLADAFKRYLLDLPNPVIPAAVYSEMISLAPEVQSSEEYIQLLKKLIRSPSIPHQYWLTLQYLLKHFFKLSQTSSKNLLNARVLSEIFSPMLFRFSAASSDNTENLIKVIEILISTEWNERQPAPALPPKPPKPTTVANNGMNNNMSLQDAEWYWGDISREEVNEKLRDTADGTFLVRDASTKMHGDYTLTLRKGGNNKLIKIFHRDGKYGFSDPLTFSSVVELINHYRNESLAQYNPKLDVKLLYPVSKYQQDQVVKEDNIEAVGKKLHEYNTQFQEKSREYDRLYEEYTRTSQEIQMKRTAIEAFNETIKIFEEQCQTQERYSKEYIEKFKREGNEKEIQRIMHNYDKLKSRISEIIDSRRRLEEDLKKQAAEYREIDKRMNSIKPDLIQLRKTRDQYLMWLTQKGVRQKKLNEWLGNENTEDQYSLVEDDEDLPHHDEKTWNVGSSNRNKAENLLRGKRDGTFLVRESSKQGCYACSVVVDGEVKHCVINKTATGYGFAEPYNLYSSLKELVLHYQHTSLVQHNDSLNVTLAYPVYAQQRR
T3 sequence (P48736 whole entry): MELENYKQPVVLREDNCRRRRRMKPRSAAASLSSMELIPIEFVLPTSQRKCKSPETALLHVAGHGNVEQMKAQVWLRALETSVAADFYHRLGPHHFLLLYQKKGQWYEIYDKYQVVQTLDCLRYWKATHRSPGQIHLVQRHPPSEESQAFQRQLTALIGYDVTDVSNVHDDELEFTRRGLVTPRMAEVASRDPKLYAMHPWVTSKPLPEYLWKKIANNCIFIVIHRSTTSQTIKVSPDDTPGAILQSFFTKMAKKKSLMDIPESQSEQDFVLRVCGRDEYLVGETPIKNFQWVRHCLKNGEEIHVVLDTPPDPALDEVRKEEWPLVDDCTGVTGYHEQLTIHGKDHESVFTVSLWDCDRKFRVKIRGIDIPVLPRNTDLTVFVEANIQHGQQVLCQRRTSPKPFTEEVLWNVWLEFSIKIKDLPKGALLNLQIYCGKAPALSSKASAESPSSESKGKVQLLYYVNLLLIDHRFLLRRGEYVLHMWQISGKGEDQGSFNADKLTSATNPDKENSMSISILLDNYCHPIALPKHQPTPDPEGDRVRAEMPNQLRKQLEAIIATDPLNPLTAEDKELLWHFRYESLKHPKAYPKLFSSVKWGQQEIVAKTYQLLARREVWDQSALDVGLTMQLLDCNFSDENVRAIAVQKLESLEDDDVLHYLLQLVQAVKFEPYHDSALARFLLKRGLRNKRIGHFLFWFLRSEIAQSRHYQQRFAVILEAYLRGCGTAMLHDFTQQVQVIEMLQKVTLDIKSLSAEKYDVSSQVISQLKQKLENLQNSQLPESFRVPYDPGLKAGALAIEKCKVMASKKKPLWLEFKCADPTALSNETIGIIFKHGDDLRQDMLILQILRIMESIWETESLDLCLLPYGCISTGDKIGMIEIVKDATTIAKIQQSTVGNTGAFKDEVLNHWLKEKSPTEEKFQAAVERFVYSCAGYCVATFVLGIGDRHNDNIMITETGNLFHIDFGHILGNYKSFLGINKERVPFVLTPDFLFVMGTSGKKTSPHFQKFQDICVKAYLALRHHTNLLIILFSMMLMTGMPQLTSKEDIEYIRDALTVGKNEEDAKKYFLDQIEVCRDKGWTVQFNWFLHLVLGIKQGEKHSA

| IC50 [1] | IC50 [2] | IC50 (PI3 Kinase (p120γ) (h)) | IC50 [3] | SMILES |
| --- | --- | --- | --- | --- |
| 10 to 500 nM | 10 to 500 nM | 10 to 500 nM | < 10 nM | C[C@H](Nc1ncnc2[nH]cc(F)c(=O)c12)c1nc2cccc(Cl)c2c(=O)n1-c1ccccc1 [Example 21, (S)-4-((1-(5-chloro-4-oxo-3-phenyl-3,4-dihydroquinazoline-2-yl)ethyl)amino)-6-fluoropyrido[2,3-d]pyrimidine-5(8H)-one] |
| > 500 nM | > 500 nM | 10 to 500 nM | 10 to 500 nM | C[C@H](Nc1ncnc2[nH]ccc(=O)c12)c1nc2ccc(F)cc2c(-c2ccccn2)c1-c1ccccc1 [Example 27, (S)-4-((1-(6-fluoro-3-phenyl-4-(pyridine-2-yl)quinoline-2-yl)ethyl)amino)pyrido[2,3-d]pyrimidine-5(8H)-one] |
| > 500 nM | > 500 nM | > 500 nM | > 500 nM | C[C@H](Nc1ncnc2c1C(=O)N(C1CC1)CN2)c1cc2cccc(Cl)c2c(=O)n1-c1ccccc1 [Example 62, (S)-5-(1-(8-chloro-1-oxo-2-phenyl-1,2-dihydroisoquinoline-3-yl)ethylamino)-3-cyclopropyl-2,3-dihydropyrimido[4,5-d]pyrimidine-4(1H)-one] |
| > 500 nM | > 500 nM | 10 to 500 nM | < 10 nM | C[C@H](Nc1ncnc2[nH]ccc(=O)c12)c1nc2ccc(F)cc2c(=O)n1-c1ccccc1 [Example 29, (S)-4-((1-(6-fluoro-4-oxo-3-phenyl-3,4-dihydroquinazoline-2-yl)ethyl)amino)pyrido[2,3-d]pyrimidine-5(8H)-one] |
| > 500 nM | > 500 nM | 10 to 500 nM | 10 to 500 nM | O=c1cc[nH]c2ncnc(N3CCC[C@H]3c3cc4cccc(Cl)c4c(=O)n3-c3ccccc3)c12 [Example 14, (S)-4-(2-(8-chloro-1-oxo-2-phenyl-1,2-dihydroisoquinoline-3-yl)pyrrolidine-1-yl)pyrido[2,3-d]pyrimidine-5(8H)-one] |
| 10 to 500 nM | > 500 nM | < 10 nM | < 10 nM | C[C@H](Nc1ncnc2c1C(=O)N(C)CN2)c1cc2cccc(Cl)c2c(=O)n1-c1ccccc1 [Example 38, (S)-5-((1-(8-chloro-1-oxo-2-phenyl-1,2-dihydroisoquinoline-3-yl)ethyl)amino)-3-methyl-2,3-dihydropyrimido[4,5-d]pyrimidine-4(1H)-one] |
| > 500 nM | > 500 nM | 10 to 500 nM | < 10 nM | C[C@H](Nc1ncnc2[nH]ccc(=O)c12)c1nc2cccc(Cl)c2c(=O)n1-c1cc(F)cc(F)c1 [Example 4, (S)-4-((1-(5-chloro-3-(3,5-difluorophenyl)-4-oxo-3,4-dihydroquinazoline-2-yl)ethyl)amino)pyrido[2,3-d]pyrimidine-5(8H)-one] |
| > 500 nM | > 500 nM | > 500 nM | > 500 nM | C[C@H](Nc1ncnc2c1C(=O)N(C1CCCC1)CN2)c1cc2cccc(Cl)c2c(=O)n1-c1ccccc1 [Example 63, (S)-5-(1-(8-chloro-1-oxo-2-phenyl-1,2-dihydroisoquinoline-3-yl)ethylamino)-3-cyclopentyl-2,3-dihydropyrimido[4,5-d]pyrimidine-4(1H)-one] |
| > 500 nM | > 500 nM | 10 to 500 nM | 10 to 500 nM | Nc1nc(N2CCC[C@H]2c2nn3ccc(Cl)c3c(=O)n2-c2ccccc2)c2c(=O)nc[nH]c2n1 [Example 95, (S)-7-amino-5-(2-(5-chloro-4-oxo-3-phenyl-3,4-dihydropyrrolo[2,1-f][1,2,4]triazine-2-yl)pyrrolidine-1-yl)pyrimido[4,5-d]pyrimidine-4(1H)-one] |
| > 500 nM | 10 to 500 nM | 10 to 500 nM | < 10 nM | C[C@H](Nc1ncnc2[nH]ccc(=O)c12)c1nc2cccc(Cl)c2c(=O)n1-c1ccccc1 [Example 1, (S)-4-((1-(5-chloro-4-oxo-3-phenyl-3,4-dihydroquinazoline-2-yl)ethyl)amino)pyrido[2,3-d]pyrimidine-5(8H)-one] |
